Results from PubChem BioAssay (NCI).
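Assay format: 96-well plates, 48-hour exposure. TGI is the concentration that stops growth completely.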

How the values were obtained:
Experiment in all cases: inhibition of tumour cell growth, NCI panel, 48 h
[1] = system: 786-0 renal
[2] = system: A498 renal
[3] = system: A549 NSCLC
[4] = system: ACHN renal
[5] = system: BT-549 breast
[6] = system: CAKI-1 renal
[7] = system: CCRF-CEM leukemia
[8] = system: COLO 205 colon
[9] = system: DU-145 prostate
[10] = system: EKVX NSCLC
[11] = system: HCC-2998 colon
[12] = system: HCT-116 colon
[13] = system: HCT-15 colon
[14] = system: HOP-62 NSCLC
[15] = system: HOP-92 NSCLC
[16] = system: HS 578T breast
[17] = system: IGROV1 ovarian
[18] = system: K-562 leukemia
[19] = system: KM12 colon
[20] = system: LOX IMVI melanoma
[21] = system: M14 melanoma
[22] = system: MALME-3M melanoma
[23] = system: MCF7 breast
[24] = system: MDA-MB-231 breast
[25] = system: MDA-MB-435
[26] = system: MDA-N
[27] = system: MOLT-4 leukemia
[28] = system: NCI-H226 lung
[29] = system: NCI-H23 lung
[30] = system: NCI-H460 lung
[31] = system: NCI-H522 lung
[32] = system: NCI/ADR-RES ovarian
[33] = system: OVCAR-3 ovarian
[34] = system: OVCAR-4 ovarian
[35] = system: OVCAR-5 ovarian
[36] = system: OVCAR-8 ovarian
[37] = system: PC-3 prostate
[38] = system: RPMI-8226 leukemia
[39] = system: RXF 393 renal
[40] = system: SF-268 CNS
[41] = system: SF-295 CNS
[42] = system: SF-539 CNS
[43] = system: SK-MEL-2 melanoma
[44] = system: SK-MEL-28 melanoma
[45] = system: SK-MEL-5 melanoma
[46] = system: SK-OV-3 ovarian
[47] = system: SN12C renal
[48] = system: SNB-19 CNS
[49] = system: SNB-75 CNS
[50] = system: SR leukemia
[51] = system: SW-620 colon
[52] = system: T-47D breast
[53] = system: TK-10 renal
[54] = system: U251 CNS
[55] = system: UACC-257 melanoma
[56] = system: UACC-62 melanoma
[57] = system: UO-31 renal
[58] = system: HL-60(TB) leukemia
[59] = system: HT29 colon

Compound: O=c1c2ccccc2oc2nc3n(c(=O)c12)CCCS3
- TGI [1]: > 100 µM
- TGI [2]: > 100 µM
- TGI [3]: > 100 µM
- TGI [4]: > 100 µM
- TGI [5]: > 100 µM
- TGI [6]: > 100 µM
- TGI [7]: > 100 µM
- TGI [8]: > 100 µM
- TGI [9]: > 100 µM
- TGI [10]: > 100 µM
- TGI [11]: > 100 µM
- TGI [12]: > 100 µM
- TGI [13]: > 100 µM
- TGI [14]: > 100 µM
- TGI [15]: > 100 µM
- TGI [16]: > 100 µM
- TGI [17]: > 100 µM
- TGI [18]: > 100 µM
- TGI [19]: > 100 µM
- TGI [20]: > 100 µM
- TGI [21]: > 100 µM
- TGI [22]: > 100 µM
- TGI [23]: > 100 µM
- TGI [24]: > 100 µM
- TGI [25]: > 100 µM
- TGI [26]: > 100 µM
- TGI [27]: > 100 µM
- TGI [28]: > 100 µM
- TGI [29]: > 100 µM
- TGI [30]: > 100 µM
- TGI [31]: > 100 µM
- TGI [32]: > 100 µM
- TGI [33]: > 100 µM
- TGI [34]: > 100 µM
- TGI [35]: > 100 µM
- TGI [36]: > 100 µM
- TGI [37]: > 100 µM
- TGI [38]: > 100 µM
- TGI [39]: > 100 µM
- TGI [40]: > 100 µM
- TGI [41]: > 100 µM
- TGI [42]: > 100 µM
- TGI [43]: > 100 µM
- TGI [44]: > 100 µM
- TGI [45]: > 100 µM
- TGI [46]: > 100 µM
- TGI [47]: > 100 µM
- TGI [48]: > 100 µM
- TGI [49]: > 100 µM
- TGI [50]: > 100 µM
- TGI [51]: > 100 µM
- TGI [52]: > 100 µM
- TGI [53]: > 100 µM
- TGI [54]: > 100 µM
- TGI [55]: > 100 µM
- TGI [56]: > 100 µM
- TGI [57]: 29.2 µM

Compound: CN(C)c1nc2sc3c(c2c(=O)o1)CCCC3
- TGI [1]: > 100 µM
- TGI [2]: 66.8 µM
- TGI [3]: > 100 µM
- TGI [4]: > 100 µM
- TGI [5]: 65.5 µM
- TGI [6]: > 100 µM
- TGI [7]: > 100 µM
- TGI [8]: 53.1 µM
- TGI [9]: > 100 µM
- TGI [10]: > 100 µM
- TGI [11]: > 100 µM
- TGI [12]: > 100 µM
- TGI [13]: > 100 µM
- TGI [58]: > 100 µM
- TGI [14]: > 100 µM
- TGI [15]: > 100 µM
- TGI [16]: > 100 µM
- TGI [59]: > 100 µM
- TGI [17]: > 100 µM
- TGI [18]: > 100 µM
- TGI [19]: > 100 µM
- TGI [20]: > 100 µM
- TGI [21]: > 100 µM
- TGI [22]: > 100 µM
- TGI [23]: > 100 µM
- TGI [24]: > 100 µM
- TGI [25]: > 100 µM
- TGI [26]: > 100 µM
- TGI [27]: > 100 µM
- TGI [28]: 81 µM
- TGI [29]: > 100 µM
- TGI [30]: > 100 µM
- TGI [31]: > 100 µM
- TGI [32]: > 100 µM
- TGI [34]: > 100 µM
- TGI [35]: > 100 µM
- TGI [36]: > 100 µM
- TGI [37]: > 100 µM
- TGI [38]: > 100 µM
- TGI [39]: > 100 µM
- TGI [41]: > 100 µM
- TGI [42]: > 100 µM
- TGI [43]: 99.4 µM
- TGI [44]: > 100 µM
- TGI [45]: > 100 µM
- TGI [46]: > 100 µM
- TGI [47]: > 100 µM
- TGI [48]: > 100 µM
- TGI [49]: 95.2 µM
- TGI [50]: > 100 µM
- TGI [51]: > 100 µM
- TGI [52]: > 100 µM
- TGI [53]: > 100 µM
- TGI [54]: > 100 µM
- TGI [55]: > 100 µM
- TGI [56]: > 100 µM
- TGI [57]: > 100 µM
